BindingDB's records for doi:10.7270/Q21V5CDC (Burnham Center For Chemical Genomics, 2010)
“And” between values parts separate entries of the source, which are not always exact repeats. Identical values can stand only once.

Target: T1, Amyloid-beta A4 precursor protein-binding family A member 1 (Rattus norvegicus, UniProt O35430)
T1 sequence (O35430 whole entry): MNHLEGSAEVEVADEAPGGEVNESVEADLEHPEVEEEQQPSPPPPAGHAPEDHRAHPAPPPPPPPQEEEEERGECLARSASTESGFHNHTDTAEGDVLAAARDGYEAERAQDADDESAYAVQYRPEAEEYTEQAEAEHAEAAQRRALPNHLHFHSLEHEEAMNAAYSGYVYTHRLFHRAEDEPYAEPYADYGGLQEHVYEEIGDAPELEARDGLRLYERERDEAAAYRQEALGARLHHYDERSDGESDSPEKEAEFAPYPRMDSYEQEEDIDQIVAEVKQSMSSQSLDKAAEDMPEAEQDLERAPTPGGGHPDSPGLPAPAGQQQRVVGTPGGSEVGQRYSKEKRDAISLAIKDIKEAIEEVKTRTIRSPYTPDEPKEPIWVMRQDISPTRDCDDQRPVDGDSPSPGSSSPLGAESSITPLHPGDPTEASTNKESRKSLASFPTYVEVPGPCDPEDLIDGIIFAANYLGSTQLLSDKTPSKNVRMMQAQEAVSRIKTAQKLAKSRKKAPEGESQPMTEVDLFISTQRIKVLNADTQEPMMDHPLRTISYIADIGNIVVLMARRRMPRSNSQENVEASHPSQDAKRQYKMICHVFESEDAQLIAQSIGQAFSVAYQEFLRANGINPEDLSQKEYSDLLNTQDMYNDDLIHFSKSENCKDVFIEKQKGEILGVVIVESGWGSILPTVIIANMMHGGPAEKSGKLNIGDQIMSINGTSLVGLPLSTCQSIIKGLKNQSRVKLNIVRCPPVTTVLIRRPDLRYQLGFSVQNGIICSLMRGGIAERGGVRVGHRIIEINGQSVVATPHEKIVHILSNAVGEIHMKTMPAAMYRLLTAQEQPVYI
Assay: disruptors of Mint-PDZ/N-type channel peptide interaction – biochemical, HTRF, SAR follow-up (AID 2489)

Compared with `CCCCc1ccc(CC2=C(C(=O)OCC)C(=O)c3ccccc3C2=O)cc1`, `CCCc1ccc(CC2=C(C(=O)OCC)C(=O)c3ccccc3C2=O)cc1` [MLS000571357] is 2.3-fold lower in IC50: 16.2 µM for the first, 7.19 µM for the second.

Compared with `CC12C=CC(C)(O1)c1c2c(O)n(-c2ccc3c(c2)OCO3)c1O`, `Cc1cccc(-n2c(O)c3c(c2O)C2(C)C=CC3(C)O2)c1` [4,7-dimethyl-2-(3-methylphenyl)-3a,7a-dihydro-octahydro-1H-4,7-epoxyisoindole-1,3-dione] is lower in IC50: over 56.8 µM for the first, 27.6 µM for the second.

First: CC12C=CC(C)(O1)c1c2c(O)n(-c2ccc(Cl)cc2)c1O
Second: Cc1ccc(-n2c(O)c3c(c2O)C2(C)C=CC3(C)O2)cc1
The IC50 of the first is higher: over 56.8 µM for the first, 11.5 µM for the second. The second is the more potent here.

`CC12C=CC(C)(O1)c1c2c(O)n(-c2ccc(F)cc2)c1O` [2-(4-fluorophenyl)-4,7-dimethyl-3a,7a-dihydro-octahydro-1H-4,7-epoxyisoindole-1,3-dione] and `CC(=O)Oc1ccc(-n2c(O)c3c(c2O)C2(C)C=CC3(C)O2)cc1` [MLS000107813] are within 1.5-fold of each other in IC50: 10.7 µM for the first, 7.82 µM for the second.

Going from `CC12C=CC(C)(O1)c1c2c(O)n(-c2ccccc2)c1O` [4,7-dimethyl-2-phenyl-3a,7a-dihydro-octahydro-1H-4,7-epoxyisoindole-1,3-dione] to `COC(=O)c1cc(-n2c(O)c3c(c2O)C2(C)C=CC3(C)O2)ccc1Cl` [MLS000107828], the IC50 rises from 11.7 µM to over 56.8 µM. The first is the more potent here.

In the case of `CC(=O)Oc1ccc(-n2c(O)c3c(c2O)C2C=CC3O2)cc1` [[4-(1,3-dioxo-3a,4,7,7a-tetrahydro-octahydro-1H-4,7-epoxyisoindol-2-yl)phenyl] acetate], the IC50 is reported as over 56.8 µM.

For `CC(=O)Oc1cccc(-n2c(O)c3c(c2O)C2(C)C=CC3(C)O2)c1`, the IC50 was 12 µM and 18.3 µM.
